Assay [1] has as its target T1, MAT2A homodimer (Homo sapiens, UniProt P31153).
T1 construct: inferred from Ni sepharose purification with imidazole elution; made in house; host or cells: Sf9 insect cells, baculovirus (Bac to Bac, pFASTBAC1)
Nature of the assay: MAT2A inhibition (biochemical, liberated phosphate, PiColorLock Gold). Conditions: recombinant MAT2A homodimer; IC50 bin with Max Inh.; read-out: Enzyme Inhibition Bin. In outline:
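Enzyme at 4 μg/mL and compound equilibrated 60 min at 25 °C, then 60 min reaction after adding substrate mix (500 μM ATP, 400 μM methionine). Released phosphate quantified by colorimetric kit against a phosphate standard curve to give IC50. Secondary format used 1 μg/mL enzyme with 5 h incubation.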

For assay [2], the system named is HCT116 MTAP+/+. Nature of the assay: Inhibition of cellular proliferation, 4 days, Cell Titer Glo, HCT116 MTAP+/+. Conditions: Homo sapiens, HCT-116, 96 h, IC50 bin with Max Inh., read-out: 4 Day Relative Growth Inhibition (MTAP +/+). Type of assay: cell-based. A digest of the protocol: (§1)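 IC50 derived from blank-corrected ATP luminescence (Cell Titer Glo) expressed relative to within-plate 0.2% DMSO wells. Compound, as a 10-point 3-fold series, was added 24 h after seeding the MTAP+/+ or MTAP−/− HCT116 cells and incubated 4 days at 37° C./5% CO2.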

For assay [3], the system named is HCT116 MTAP−/−. Nature of the assay: Inhibition of cellular proliferation, 4 days, Cell Titer Glo, HCT116 MTAP−/−. Type of assay: cell-based. Conditions: Homo sapiens, HCT-116, 96 h, IC50 bin with Max Inh., read-out: 4 Day Relative Growth Inhibition (MTAP −/−). In outline:
as §1
A general note: In ATP-based viability assays light output follows the ATP content of the culture.

For assay [4], the system named is SAM in HCT116 human colon carcinoma cell line with MTAP gene deleted (MTAP −/−). Kind of assay: Cellular assay of target engagement (SAM), LC-MS/MS, 72 hrs. Format: cell-based. The following applies: HCT-116, IC50 bin with Max Inh., read-out: Cell 72 h SAM Inhibition (MTAP −/−). In outline: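 SAM levels were quantified by LC-MS/MS (m/z 399.2→250.1, d3-SAM internal standard) from cold methanol/acetic acid extracts, yielding IC50. Compound was applied as a 10-point 3-fold series for 72 hrs to MTAP −/− HCT116 cells seeded 24 hours before.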

Bounds are passed on as bounds.

T1 sequence (P31153 whole entry): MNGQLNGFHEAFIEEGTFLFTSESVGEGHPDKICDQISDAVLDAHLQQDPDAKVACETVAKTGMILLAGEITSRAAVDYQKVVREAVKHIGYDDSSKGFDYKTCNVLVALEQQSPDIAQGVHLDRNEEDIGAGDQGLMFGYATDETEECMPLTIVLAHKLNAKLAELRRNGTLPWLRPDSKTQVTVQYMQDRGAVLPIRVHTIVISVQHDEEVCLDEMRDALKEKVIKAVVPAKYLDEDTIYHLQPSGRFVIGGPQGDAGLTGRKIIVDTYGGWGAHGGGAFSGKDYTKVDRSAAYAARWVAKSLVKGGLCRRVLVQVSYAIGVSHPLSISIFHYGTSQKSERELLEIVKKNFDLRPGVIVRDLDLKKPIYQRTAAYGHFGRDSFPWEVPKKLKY

On to `CN1CCOc2ccc(-n3nc4ccn(CC5CC5)c4c(-c4ccc(OC(F)F)cc4)c3=O)cc21` [Example 227, 5-(cyclopropylmethyl)-4-(4-(difluoromethoxy)phenyl)-2-(4-methyl-3,4-dihydro-2H-benzo[b][1,4]oxazin-6-yl)-2,5-dihydro-3H-pyrrolo[3,2-c]pyridazin-3-one], for which the IC50 in assay [1] is under 100 nM; in assay [2], 100 to 1000 nM; in assay [3] it was under 100 nM; in assay [4] it was under 100 nM.

On to `Cn1cc2cc(-n3nc4c(C#N)cn(CC5CC5)c4c(-c4ccc(C#N)cc4)c3=O)ccc2n1` [Example 149, 4-(4-cyanophenyl)-5-(cyclopropylmethyl)-2-(2-methyl-2H-indazol-5-yl)-3-oxo-3,5-dihydro-2H-pyrrolo[3,2-c]pyridazine-7-carbonitrile], for which the IC50 in assay [1] was under 100 nM; in assay [2], over 1000 nM; in assay [3], 100 to 1000 nM; in assay [4] it was 100 to 1000 nM.

Take `Cn1cc2cc(-n3nc4c(C#N)cn(CC5CC5)c4c(-c4ccc(CO)nc4)c3=O)ccc2n1` [Example 158, 5-(cyclopropylmethyl)-4-(6-(hydroxymethyl)pyridin-3-yl)-2-(2-methyl-2H-indazol-5-yl)-3-oxo-3,5-dihydro-2H-pyrrolo[3,2-c]pyridazine-7-carbonitrile]: the IC50 in assay [1] is under 100 nM; in assay [2], over 1000 nM; in assay [3] it was 100 to 1000 nM; in assay [4], 100 to 1000 nM.

Turning to `Cc1nc2ccc(-n3nc4ccn(CC5CC5)c4c(-c4ccc(C5CC5)nc4)c3=O)cc2n1C` [Example 156, 5-(cyclopropylmethyl)-4-(6-cyclopropylpyridin-3-yl)-2-(1,2-dimethyl-1H-benzo[d]imidazol-6-yl)-2,5-dihydro-3H-pyrrolo[3,2-c]pyridazin-3-one], the IC50 in assay [1], in assay [2], in assay [3] and in assay [4] was under 100 nM throughout.

Consider `Cn1cc2cc(-n3nc4c(C#N)cn(CC5CC5)c4c(-c4ccc(C5CC5)nc4)c3=O)ccc2n1` [Example 107, 5-(cyclopropylmethyl)-4-(6-cyclopropylpyridin-3-yl)-2-(2-methyl-2H-indazol-5-yl)-3-oxo-3,5-dihydro-2H-pyrrolo[3,2-c]pyridazine-7-carbonitrile], for which the IC50 in assay [1] was under 100 nM; in assay [2], 100 to 1000 nM; in assay [3], under 100 nM; in assay [4], under 100 nM.

Turning to `Cn1cc2cc(-n3nc4c(C#N)cn(CC5CCC5)c4c(-c4ccc(C5CC5)nc4)c3=O)ccc2n1` [Example 159, 5-(cyclobutylmethyl)-4-(6-cyclopropylpyridin-3-yl)-2-(2-methyl-2H-indazol-5-yl)-3-oxo-3,5-dihydro-2H-pyrrolo[3,2-c]pyridazine-7-carbonitrile], the IC50 in assay [1] was under 100 nM; in assay [2], over 1000 nM; in assay [3] it was 100 to 1000 nM; in assay [4], under 100 nM.

Take `Cn1cc2cc(-n3nc4c(F)cn(CC5CC5)c4c(-c4ccc(C5CC5)nc4)c3=O)ccc2n1` [Example 235, 5-(cyclopropylmethyl)-4-(6-cyclopropylpyridin-3-yl)-7-fluoro-2-(2-methyl-2H-indazol-5-yl)-2,5-dihydro-3H-pyrrolo[3,2-c]pyridazin-3-one]: the IC50 in assay [1] was under 100 nM; in assay [2] it was over 1000 nM; in assay [3] it was under 100 nM; in assay [4], under 100 nM.

On to `Cn1cc2cc(-n3nc4c(C(N)=O)cn(CC5CC5)c4c(-c4ccc(OC(F)F)cc4)c3=O)ccc2n1` [Example 168, 5-(cyclopropylmethyl)-4-(4-(difluoromethoxy)phenyl)-2-(2-methyl-2H-indazol-5-yl)-3-oxo-3,5-dihydro-2H-pyrrolo[3,2-c]pyridazine-7-carboxamide], for which the IC50 in assay [1] is under 100 nM; in assay [2], over 1000 nM; in assay [3] it was under 100 nM; in assay [4], under 100 nM.

With `COC1CC=C(n2nc3ccn(CC4CC4)c3c(-c3ccc(OC(F)F)cc3)c2=O)CC1` (stereo not drawn) [Example 230, 5-(cyclopropylmethyl)-4-(4-(difluoromethoxy)phenyl)-2-(4-methoxycyclohex-1-en-1-yl)-2,5-dihydro-3H-pyrrolo[3,2-c]pyridazin-3-one], the IC50 is under 100 nM in assay [1], over 1000 nM in assay [2], 100 to 1000 nM in assay [3] and 100 to 1000 nM in assay [4].

Consider `Cn1cc2cc(-n3nc4ccn(CCC(F)(F)F)c4c(-c4ccc(OC(F)F)cc4)c3=O)ccc2n1` [Example 105, 4-(4-(difluoromethoxy)phenyl)-2-(2-methyl-2H-indazol-5-yl)-5-(3,3,3-trifluoropropyl)-2,5-dihydro-3H-pyrrolo[3,2-c]pyridazin-3-one], for which the IC50 is under 100 nM in assay [1], over 1000 nM in assay [2], under 100 nM in assay [3] and under 100 nM in assay [4].

As to `Cn1cc2cc(-n3nc4ccn(CC5CC5)c4c(-c4ccc(C5CC5)nc4)c3=O)ccc2n1` [Example 106, 5-(cyclopropylmethyl)-4-(6-cyclopropylpyridin-3-yl)-2-(2-methyl-2H-indazol-5-yl)-2,5-dihydro-3H-pyrrolo[3,2-c]pyridazin-3-one], the IC50 in assay [1] was under 100 nM; in assay [2], over 1000 nM; in assay [3] it was under 100 nM; in assay [4], under 100 nM.

For `Cc1nn(CC2CC2)c2c(-c3ccc(Cl)cc3)c(=O)n(-c3ccc4nn(C)cc4c3)nc12` [Example 215, 7-(4-chlorophenyl)-1-(cyclopropylmethyl)-3-methyl-5-(2-methyl-2H-indazol-5-yl)-1,5-dihydro-6H-pyrazolo[4,3-c]pyridazin-6-one], the IC50 in assay [1] was under 100 nM; in assay [2] it was 100 to 1000 nM; in assay [3], under 100 nM; in assay [4], under 100 nM.

`COc1ccc(-c2c(=O)n(-c3ccc4nn(C)cc4c3)nc3c(C#N)cn(CC4CC4)c23)cn1` [Example 111, 5-(cyclopropylmethyl)-4-(6-methoxypyridin-3-yl)-2-(2-methyl-2H-indazol-5-yl)-3-oxo-3,5-dihydro-2H-pyrrolo[3,2-c]pyridazine-7-carbonitrile]: the IC50 in assay [1] was under 100 nM; in assay [2], over 1000 nM; in assay [3], under 100 nM; in assay [4], under 100 nM.

`Cc1ccc(-c2c(=O)n(-c3ccc4nn(C)cc4c3)nc3ncn(CC4CC4)c23)cn1` [Example 187, 5-(cyclopropylmethyl)-2-(2-methyl-2H-indazol-5-yl)-4-(6-methylpyridin-3-yl)-2,5-dihydro-3H-imidazo[4,5-c]pyridazin-3-one]: the IC50 in assay [1] is under 100 nM; in assay [2], over 1000 nM; in assay [3], 100 to 1000 nM; in assay [4], 100 to 1000 nM.

Consider `CNC(=O)c1cn(CC2CC2)c2c(-c3ccc(OC)cc3)c(=O)n(-c3ccc4nn(C)cc4c3)nc12` [Example 176, 5-(cyclopropylmethyl)-4-(4-methoxyphenyl)-N-methyl-2-(2-methyl-2H-indazol-5-yl)-3-oxo-3,5-dihydro-2H-pyrrolo[3,2-c]pyridazine-7-carboxamide], for which the IC50 in assay [1] is under 100 nM; in assay [2], 100 to 1000 nM; in assay [3], under 100 nM; in assay [4] it was under 100 nM.

`Cn1cc2cc(-n3nc4c(C#N)cn(CC5CC5)c4c(-c4ccc([C@@H]5CC5(F)F)nc4)c3=O)ccc2n1` [Example 252, (S)-5-(cyclopropylmethyl)-4-(6-(2,2-difluorocyclopropyl)pyridin-3-yl)-2-(2-methyl-2H-indazol-5-yl)-3-oxo-3,5-dihydro-2H-pyrrolo[3,2-c]pyridazine-7-carbonitrile]: the IC50 was under 100 nM in assay [1], over 1000 nM in assay [2], 100 to 1000 nM in assay [3] and 100 to 1000 nM in assay [4].

`Cn1cc2cc(-n3nc4c(C#N)cn(CC5CC5)c4c(-c4ccc(C(F)(F)F)nc4)c3=O)ccc2n1` [Example 119, 5-(cyclopropylmethyl)-2-(2-methyl-2H-indazol-5-yl)-3-oxo-4-(6-(trifluoromethyl)pyridin-3-yl)-3,5-dihydro-2H-pyrrolo[3,2-c]pyridazine-7-carbonitrile]: the IC50 is under 100 nM in assay [1], over 1000 nM in assay [2], over 1000 nM in assay [3] and over 1000 nM in assay [4].

Consider `Cn1cc2cc(-n3nc4c(C#N)cn(CC5CC5)c4c(-c4ccc(Cl)cc4)c3=O)ccc2n1` [Example 139, 4-(4-chlorophenyl)-5-(cyclopropylmethyl)-2-(2-methyl-2H-indazol-5-yl)-3-oxo-3,5-dihydro-2H-pyrrolo[3,2-c]pyridazine-7-carbonitrile], for which the IC50 in assay [1], in assay [2], in assay [3] and in assay [4] was under 100 nM in each case.

The values are drawn from patent US20220169654A1, “New Organic Compounds” (Servier Pharmaceuticals LLC, priority 2020, published 2022).
